Measurements published in ChEMBL document CHEMBL3885861, “Open TG-GATES”.

Species on record: Rattus norvegicus
Assay: Open TG-GATES - Regimen: Single
Assay type: toxicity, organism-based, Sprague-Dawley
Set-up: regimen Single, gender Male, age 6 weeks
Conditions: in vivo, po, 30 mg/kg, route gavage, dose level Low; for APTT / Bas / Eos / Fbg / Hb / Ht / Lym / MCH / MCHC / MCV / Mono / Neu / PT / Plat / RBC / Ret / WBC: tissue Blood; for KIDNEY_L / KIDNEY_R / KIDNEY_TOTAL: tissue Kidney; for LIVER: tissue Liver; for A/G / ALP / ALT / AST / BUN / CRE / Ca / Cl / DBIL / GLC / IP / K / LDH / Na / PL / RALB / TBIL / TC / TG / TP / gamma-GTP: tissue Plasma

## Cc1ccc(C)c(OCCCC(C)(C)C(=O)O)c1 [GEMFIBROZIL]
3 h
  TERMINAL_BW: 219.6 g
  APTT: 16 s
  Bas: 0%
  Eos: 0.6%
  Fbg: 282.6 mg/dL
  Hb: 14.2 g/dL
  Ht: 41%
  Lym: 79.2%
  MCH: 22.1 pg
  MCHC: 34.7%
  MCV: 63.6 fL
  Mono: 2.8%
  Neu: 16.6%
  PT: 12.4 s
  Plat: 113.5 x10_4/uL
  RBC: 644.2 x10_4/ul
  Ret: 7%
  WBC: 92.7 x10_2/uL
  KIDNEY_L: 0.9 g
  KIDNEY_R: 0.9 g
  KIDNEY_TOTAL: 1.8 g
  LIVER: 9.1 g
  A/G: 0.9
  ALP: 1552.4 IU/L
  ALT: 48.6 IU/L
  AST: 74.6 IU/L
  BUN: 11.6 mg/dL
  CRE: 0.2 mg/dL
  Ca: 11.2 mg/dL
  Cl: 106.8 meq/L
  DBIL: 0.046 mg/dL
  GLC: 181 mg/dL
  IP: 9.7 mg/dL
  K: 4 meq/L
  LDH: 60.8 IU/L
  Na: 141.6 meq/L
  PL: 156.2 mg/dL
  RALB: 2.6 g/dL
  TBIL: 0.048 mg/dL
  TC: 70 mg/dL
  TG: 141.4 mg/dL
  TP: 5.5 g/dL
  gamma-GTP: 1 IU/L
6 h
  TERMINAL_BW: 221.2 g
  APTT: 15.2 s
  Bas: 0%
  Eos: 0.6%
  Fbg: 335.6 mg/dL
  Hb: 14.3 g/dL
  Ht: 41.1%
  Lym: 78.6%
  MCH: 22.1 pg
  MCHC: 34.9%
  MCV: 63.4 fL
  Mono: 2.4%
  Neu: 17.6%
  PT: 12.3 s
  Plat: 122 x10_4/uL
  RBC: 649.2 x10_4/ul
  Ret: 6.8%
  WBC: 75.7 x10_2/uL
  KIDNEY_L: 1 g
  KIDNEY_R: 0.9 g
  KIDNEY_TOTAL: 1.9 g
  LIVER: 9.2 g
  A/G: 0.9
  ALP: 1429.6 IU/L
  ALT: 41 IU/L
  AST: 75 IU/L
  BUN: 10.4 mg/dL
  CRE: 0.2 mg/dL
  Ca: 11.3 mg/dL
  Cl: 107.2 meq/L
  DBIL: 0.044 mg/dL
  GLC: 188 mg/dL
  IP: 10.4 mg/dL
  K: 4.2 meq/L
  LDH: 60.6 IU/L
  Na: 142.2 meq/L
  PL: 150.4 mg/dL
  RALB: 2.7 g/dL
  TBIL: 0.054 mg/dL
  TC: 77.2 mg/dL
  TG: 90.2 mg/dL
  TP: 5.6 g/dL
  gamma-GTP: 1.6 IU/L
9 h
  TERMINAL_BW: 224 g
  APTT: 15 s
  Bas: 0%
  Eos: 0.8%
  Fbg: 313 mg/dL
  Hb: 13.8 g/dL
  Ht: 40.2%
  Lym: 76.8%
  MCH: 21.3 pg
  MCHC: 34.3%
  MCV: 62 fL
  Mono: 3.4%
  Neu: 18%
  PT: 12 s
  Plat: 106.6 x10_4/uL
  RBC: 649.2 x10_4/ul
  Ret: 7.1%
  WBC: 68.1 x10_2/uL
  KIDNEY_L: 0.9 g
  KIDNEY_R: 0.9 g
  KIDNEY_TOTAL: 1.9 g
  LIVER: 8.6 g
  A/G: 0.9
  ALP: 1676.4 IU/L
  ALT: 38 IU/L
  AST: 69.2 IU/L
  BUN: 11.8 mg/dL
  CRE: 0.2 mg/dL
  Ca: 10.9 mg/dL
  Cl: 107 meq/L
  DBIL: 0.046 mg/dL
  GLC: 189.2 mg/dL
  IP: 11.3 mg/dL
  K: 3.8 meq/L
  LDH: 52.8 IU/L
  Na: 143.4 meq/L
  PL: 147 mg/dL
  RALB: 2.6 g/dL
  TBIL: 0.05 mg/dL
  TC: 78.6 mg/dL
  TG: 66.4 mg/dL
  TP: 5.4 g/dL
  gamma-GTP: 1 IU/L
24 h
  TERMINAL_BW: 227.1 g
  APTT: 14.5 s
  Bas: 0%
  Eos: 1%
  Fbg: 284.8 mg/dL
  Hb: 13.8 g/dL
  Ht: 39.8%
  Lym: 75.6%
  MCH: 22.3 pg
  MCHC: 34.7%
  MCV: 64.3 fL
  Mono: 2.4%
  Neu: 20.6%
  PT: 12.1 s
  Plat: 112.3 x10_4/uL
  RBC: 620 x10_4/ul
  Ret: 7.1%
  WBC: 70.3 x10_2/uL
  KIDNEY_L: 1 g
  KIDNEY_R: 1 g
  KIDNEY_TOTAL: 2 g
  LIVER: 10.5 g
  A/G: 0.9
  ALP: 1729.6 IU/L
  ALT: 47.4 IU/L
  AST: 70.4 IU/L
  BUN: 16 mg/dL
  CRE: 0.2 mg/dL
  Ca: 11.3 mg/dL
  Cl: 106.4 meq/L
  DBIL: 0.044 mg/dL
  GLC: 191 mg/dL
  IP: 7.7 mg/dL
  K: 4.5 meq/L
  LDH: 63.6 IU/L
  Na: 142.2 meq/L
  PL: 137.6 mg/dL
  RALB: 2.7 g/dL
  TBIL: 0.036 mg/dL
  TC: 68.6 mg/dL
  TG: 100.6 mg/dL
  TP: 5.6 g/dL
  gamma-GTP: 0.8 IU/L
